Data reported in ChEMBL document CHEMBL1201862, “PubChem BioAssay data set” (2004).
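Cells were grown in 96-well plates and exposed to each compound for 48 hours at five concentrations; endpoints were interpolated linearly between bracketing concentrations, or set to the highest concentration if not reached. The concentration for 50% growth inhibition is given as GI50.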 Activity calls are given as the source filed them. Cut-off read from the data, not from the text of the source: active = GI50 up to about 1.1 µM and inactive = higher.

Legend:
Experiment in all cases: inhibition of tumour cell growth, NCI panel, 48 h
OVCAR-5 = test system: OVCAR-5
A549 = test system: A549
786-0 = test system: 786-0
NCI-H23 = test system: NCI-H23
SK-OV-3 = test system: SK-OV-3
HCT-116 = test system: HCT-116
SK-MEL-5 = test system: SK-MEL-5
UO-31 = test system: UO-31
HT-29 = test system: HT-29
NCI-H226 = test system: NCI-H226
RXF 393 = test system: RXF 393
CAKI-1 = test system: CAKI-1
SN12C = test system: SN12C
SW-620 = test system: SW-620
RPMI-8226 = test system: RPMI-8226
SF-268 = test system: SF-268
SF-295 = test system: SF-295

Measured: GI50

Cc1ccc(NC(=O)C(=O)C(C(=O)c2ccc3ccccc3c2)C2OC(=O)c3ccccc32)c(C)c1 (stereo not drawn)
inactive: OVCAR-5 16.3 µM | A549 18 µM | 786-0 6.93 µM | NCI-H23 8.13 µM | SK-OV-3 12.5 µM | HCT-116 6.35 µM | SK-MEL-5 11.1 µM | UO-31 13.1 µM | HT-29 25.7 µM | NCI-H226 2.63 µM | RXF 393 3.24 µM | CAKI-1 6.68 µM | SN12C 15.5 µM | SW-620 5.71 µM | RPMI-8226 5.87 µM | SF-268 3.68 µM

COc1ccc(-c2oc(/C=N/NC(N)=S)c([N+](=O)[O-])c2-c2ccc(OC)c(OC)c2)cc1OC
inactive: OVCAR-5 48.3 µM | SF-295 20.7 µM | A549 35.6 µM | 786-0 27.1 µM | NCI-H23 32 µM | SK-OV-3 21 µM | HCT-116 19.2 µM | HT-29 23.1 µM | NCI-H226 28.1 µM | RXF 393 13.2 µM | CAKI-1 32.1 µM | SN12C 36 µM | SW-620 33.1 µM | RPMI-8226 17 µM | SF-268 16.6 µM

O=C(c1ccc(Cl)cc1)c1ccc(OCCSCCCCCCCCCCSCCOc2ccc(C(=O)c3ccc(Cl)cc3)cc2)cc1
inactive: OVCAR-5 > 100 µM | SF-295 91.8 µM | A549 > 100 µM | 786-0 > 100 µM | NCI-H23 > 100 µM | SK-OV-3 > 100 µM | SK-MEL-5 > 100 µM | UO-31 > 100 µM | HT-29 > 100 µM | NCI-H226 > 100 µM | RXF 393 > 100 µM | CAKI-1 > 100 µM | SN12C > 100 µM | SW-620 > 100 µM | RPMI-8226 > 100 µM | SF-268 > 100 µM

CCOC(=O)c1cccc(=O)c(C(=O)OCC)c1
inactive: OVCAR-5 > 100 µM | SF-295 2.38 µM | A549 46.9 µM | 786-0 63.2 µM | NCI-H23 44 µM | SK-OV-3 > 100 µM | HCT-116 28.4 µM | SK-MEL-5 47.8 µM | UO-31 29.4 µM | HT-29 58.2 µM | NCI-H226 19.1 µM | RXF 393 36.2 µM | CAKI-1 77.3 µM | SW-620 50.2 µM | RPMI-8226 29.3 µM

COc1cc(Oc2c(O)c(C)c(OC)c(C(C)=O)c2O)c(C(C)=O)c(O)c1C
inactive: OVCAR-5 98.2 µM | SF-295 > 100 µM | A549 45.8 µM | 786-0 60.7 µM | NCI-H23 34.4 µM | SK-OV-3 > 100 µM | HCT-116 52.8 µM | SK-MEL-5 35.2 µM | UO-31 43.1 µM | HT-29 71.8 µM | NCI-H226 85.9 µM | RXF 393 61.9 µM | CAKI-1 60.3 µM | SN12C 34.9 µM | SW-620 57.3 µM | SF-268 66.4 µM

CCOc1ccc2c(c1)[n+]([O-])c(-c1ccc([N+](=O)[O-])cc1)c(N)[n+]2[O-]
inactive: OVCAR-5 > 100 µM | SF-295 > 100 µM | A549 > 100 µM | 786-0 > 100 µM | NCI-H23 > 100 µM | SK-OV-3 > 100 µM | HCT-116 62.2 µM | SK-MEL-5 > 100 µM | UO-31 43.1 µM | HT-29 > 100 µM | NCI-H226 > 100 µM | RXF 393 > 100 µM | CAKI-1 > 100 µM | SN12C > 100 µM | SW-620 > 100 µM | SF-268 > 100 µM

CCCCn1c(-c2ccccc2)cs/c1=N\NC(=O)Cn1c(C)nc2ccccc21
inactive: OVCAR-5 > 100 µM | SF-295 33.5 µM | A549 81.1 µM | 786-0 > 100 µM | NCI-H23 8.75 µM | SK-OV-3 > 100 µM | HCT-116 97.3 µM | SK-MEL-5 20.4 µM | UO-31 55.6 µM | HT-29 > 100 µM | NCI-H226 35.8 µM | RXF 393 34.3 µM | CAKI-1 62.5 µM | SN12C 19.8 µM | SW-620 > 100 µM | RPMI-8226 14.7 µM

CNC(=O)OCc1cc2ccncc2c2c1[nH]c1ccccc12
inactive: OVCAR-5 > 77.6 µM | SF-295 > 100 µM | A549 > 27.4 µM | 786-0 26.7 µM | NCI-H23 > 100 µM | HCT-116 5.16 µM | SK-MEL-5 > 100 µM | UO-31 > 100 µM | HT-29 > 25.5 µM | NCI-H226 > 100 µM | RXF 393 2.55 µM | CAKI-1 3.21 µM | SN12C > 100 µM | SW-620 6.01 µM | RPMI-8226 > 88.3 µM

COC(=O)CC1CCN(C#N)CC1CC[N+](=O)[O-] (stereo not drawn)
inactive: A549 > 100 µM | 786-0 > 100 µM | SK-OV-3 > 100 µM | HCT-116 > 100 µM | SK-MEL-5 > 100 µM | UO-31 > 100 µM | NCI-H226 > 100 µM | RXF 393 > 100 µM | CAKI-1 > 100 µM | SN12C > 100 µM | SW-620 > 100 µM | RPMI-8226 > 100 µM | SF-268 > 100 µM
